Several values for one entry are separate records, joined by “and”; a condition that tells them apart may be missing. Equal values may be shown once.
Assay: xn = mol fraction of the nth substance listed

O=C1CCCN1 + CN1CCCC1=O
298.15 K, 100 kPa
Conditions	viscosity [mPa·s]
x1 = 0.0188	1.759
x1 = 0.0298	1.79
x1 = 0.0397	1.827
x1 = 0.0507	1.835
x1 = 0.065	1.874
x1 = 0.0793	1.963
x1 = 0.097	1.992
x1 = 0.1004	1.999
x1 = 0.1498	2.168
x1 = 0.1993	2.356
x1 = 0.2495	2.568
x1 = 0.3001	2.808
x1 = 0.3497	3.067
x1 = 0.3986	3.361
x1 = 0.4492	3.704
x1 = 0.4994	4.091
x1 = 0.5493	4.53
x1 = 0.5989	5.022
x1 = 0.6497	5.608
x1 = 0.6992	6.263
x1 = 0.7487	7.017
x1 = 0.7986	7.914
x1 = 0.8494	8.966
x1 = 0.8984	10.14
x1 = 0.918	10.67
x1 = 0.9287	10.99
x1 = 0.9394	11.33
x1 = 0.959	12.01
x1 = 0.9695	12.29
x1 = 0.9798	12.64
x2 = 0.0111	12.96

CCC(C)CC + CCCCCCCCCCCCCCCC
298 K, 101.33 kPa
Conditions	viscosity [mPa·s]
x1 = 0.1071	2.635
x1 = 0.2084	2.224
x1 = 0.3095	1.87
x1 = 0.4069	1.554
x1 = 0.5054	1.274
x1 = 0.6034	1.022
x1 = 0.7044	0.7813
x1 = 0.8037	0.5939
x1 = 0.902	0.4194

O=S=O + CC(C)=O
298.15 K, 101 kPa
Conditions	viscosity [mPa·s]
x1 = 0.04866	0.3122
x1 = 0.1662	0.3313
x1 = 0.2057	0.3365
x1 = 0.2466	0.3415
x1 = 0.2858	0.343
x1 = 0.4007	0.3471

CC(C)Cc1ccccc1 + COC(=O)c1ccccc1
viscosity [mPa·s], 101 kPa
Conditions	x2 = 0.1256	x2 = 0.2427	x2 = 0.355	x2 = 0.4602	x2 = 0.5572	x2 = 0.6486	x2 = 0.7454	x2 = 0.8333	x2 = 0.9166
303.15 K	0.957	1.001	1.057	1.127	1.195	1.274	1.363	1.467	1.555
313.15 K	0.824	0.862	0.908	0.961	1.011	1.075	1.145	1.215	1.288

CN(c1ccccc1)c1ccccc1 + Oc1ccccc1
101 kPa
Conditions	viscosity [mPa·s]
293.25 K, x2 = 0.0915	7.08
293.25 K, x2 = 0.169	7.15
293.25 K, x2 = 0.2877	7.3
293.25 K, x2 = 0.4271	7.64
293.25 K, x2 = 0.5326	7.98
293.25 K, x2 = 0.6464	8.45
293.25 K, x2 = 0.7197	8.85
293.25 K, x2 = 0.7988	9.35
293.25 K, x2 = 0.8785	9.95
293.25 K, x2 = 0.942	10.48
303.15 K, x2 = 0.0926	5.1
303.15 K, x2 = 0.1813	5.13
303.15 K, x2 = 0.328	5.19
303.15 K, x2 = 0.5156	5.42
303.15 K, x2 = 0.6595	5.7
303.15 K, x2 = 0.7615	5.97
303.15 K, x2 = 0.8443	6.26
303.15 K, x2 = 0.9	6.5
303.15 K, x2 = 0.9463	6.73
313.15 K, x2 = 0.0926	3.785
313.15 K, x2 = 0.1813	3.76
313.15 K, x2 = 0.328	3.77
313.15 K, x2 = 0.5156	3.88
313.15 K, x2 = 0.6595	4.02
313.15 K, x2 = 0.7615	4.15
313.15 K, x2 = 0.8443	4.28
313.15 K, x2 = 0.9	4.4
313.15 K, x2 = 0.9463	4.51

Cc1cc(C)cc(C)c1 + C[N+](=O)[O-]
293.15 K, 101.33 kPa
Conditions	viscosity [mPa·s]
x2 = 0.1192	0.686
x2 = 0.2065	0.683
x2 = 0.3019	0.679
x2 = 0.3858	0.679
x2 = 0.4761	0.674
x2 = 0.6061	0.671
x2 = 0.7112	0.666
x2 = 0.7985	0.657
x2 = 0.8912	0.648

CCC(C)CC + COC(C)(C)C
298.15 K, 101.33 kPa
Conditions	viscosity [mPa·s]
x2 = 0.0876	0.2925
x2 = 0.1993	0.2945
x2 = 0.2983	0.2972
x2 = 0.3943	0.3008
x2 = 0.5016	0.3049
x2 = 0.5934	0.3089
x2 = 0.6935	0.3139
x2 = 0.7963	0.3199
x2 = 0.8984	0.3268

CC(C)Cc1ccccc1 + CCCCCCCCCCCC
viscosity [mPa·s], 102 kPa
Conditions	x1 = 0.1006	x1 = 0.2004	x1 = 0.2996	x1 = 0.3998	x1 = 0.5	x1 = 0.6001	x1 = 0.6993	x1 = 0.7997	x1 = 0.8998
293.15 K	1.41	1.35	1.28	1.23	1.17	1.13	1.09	1.05	1.03
303.15 K	1.19	1.14	1.09	1.05	1	0.97	0.945	0.915	0.896
313.15 K	1.02	0.984	0.949	0.915	0.88	0.848	0.823	0.798	0.781
323.15 K	0.892	0.861	0.83	0.8	0.773	0.749	0.726	0.706	0.691

CCCCCC[N+]1(C)CCOCC1.[Br-] + OCCOCCO
100 kPa, x1 = 0.2003
Conditions	viscosity [mPa·s]
293.15 K	88.12
298.15 K	66.83
303.15 K	51.75
308.15 K	40.85
313.15 K	32.85
318.15 K	26.75
323.15 K	22.17

O=C1CCCN1 + CO
298.15 K, 100 kPa
Conditions	viscosity
x1 = 0.0098	0.568 mPa·s
x1 = 0.0194	0.587 mPa·s
x1 = 0.0295	0.641 mPa·s
x1 = 0.0392	0.657 mPa·s
x1 = 0.0499	0.687 mPa·s
x1 = 0.059	0.671 mPa·s
x1 = 0.0688	0.691 mPa·s
x1 = 0.078	0.708 mPa·s
x1 = 0.0883	0.755 mPa·s
x1 = 0.0973	0.759 mPa·s
x1 = 0.0988	0.906 mPa·s
x1 = 0.2022	1.133 mPa·s
x1 = 0.2963	1.432 mPa·s
x1 = 0.3984	1.937 mPa·s
x1 = 0.4592	2.346 mPa·s
x1 = 0.5694	3.304 mPa·s
x1 = 0.6844	4.749 mPa·s
x1 = 0.7834	6.52 mPa·s
x1 = 0.8988	9.529 mPa·s and 9.56 mPa·s
x1 = 0.9076	9.83 mPa·s
x1 = 0.9213	10.34 mPa·s
x1 = 0.9308	10.66 mPa·s
x1 = 0.9383	10.97 mPa·s
x1 = 0.9496	11.39 mPa·s
x1 = 0.9615	11.92 mPa·s
x1 = 0.9741	12.35 mPa·s
x2 = 0.0101	13.03 mPa·s

OC[C@H]1O[C@H](O[C@H]2O[C@H](CO)[C@@H](O)[C@H](O)[C@H]2O)[C@H](O)[C@@H](O)[C@@H]1O + O
298.15 K, 101 kPa
Conditions	viscosity [mPa·s]
x1 = 0.0009	0.935
x1 = 0.001798	0.982
x1 = 0.002695	1.032
x1 = 0.00359	1.084
x1 = 0.004484	1.139
x1 = 0.005375	1.197

O=S=O + ClC(Cl)Cl
298.15 K, 101 kPa
Conditions	viscosity [mPa·s]
x1 = 0.0035	0.5141
x1 = 0.004762	0.5053
x1 = 0.00539	0.5022

Cc1cc(C)cc(C)c1 + c1ccccc1
viscosity [mPa·s], 101 kPa
Conditions	x1 = 0.0992	x1 = 0.1997	x1 = 0.3013	x1 = 0.4024	x1 = 0.504	x1 = 0.5997	x1 = 0.7035	x1 = 0.7997	x1 = 0.9018
303 K	0.5455	0.5407	0.5421	0.546	0.5511	0.5579	0.5714	0.5833	0.596
313 K	0.4826	0.4807	0.4822	0.4861	0.4905	0.4999	0.5097	0.5201	0.5336
323 K	0.4308	0.4229	0.4325	0.4374	0.439	0.4507	0.4587	0.4681	0.4791
